Row | Compound | melting point [°C]
1 | CCCCCCCCCC(=O)OCC#Cc1ncn2c1CN(C)C(=O)c1c(Cl)cccc1-2 | 70 to 72
2 | CC(C)C(=O)NC1CCc2c(c3cc(-c4nnc(N)s4)ccc3n2Cc2cccc(F)c2)C1 (stereo unspecified) | 251 to 254
3 | Clc1cnc(Oc2cccc(OCc3ccc(Cl)cc3Cl)c2)nc1 | 110
4 | CC1=C(C(=O)O)C(C)(C)CCC1=O | 181 to 183
5 | CC(=O)N1N=C(c2ccc([N+](=O)[O-])c(C)c2)c2cc3c(cc2CC1C)OCO3 (stereo unspecified) | 123 to 127
6 | CC(=S)NCC1CN(c2ccc(C(=O)Oc3c(F)c(F)c(F)c(F)c3F)c(F)c2)C(=O)O1 (stereo unspecified) | 163 to 164
7 | O=C1Nc2cc(Cl)ccc2C(=O)C1c1ccccn1 (stereo unspecified) | > 330
8 | CC(=O)C1CCC2C3CC=C4C=CCCC4(C)C3CCC12C (stereo unspecified) | 135 to 136
9 | CCCCCCCCN(O)C(=O)N(C)C | 29 to 30
10 | CS(=O)(=O)Nc1cccc2c1CCC[C@H]2c1c[nH]cn1 | 118 to 123
11 | Cc1cc(C)c(-n2ccc3c(Cl)nn(C)c(=O)c32)c(C)c1 | 170 to 171
12 | CC(=O)c1ccc(N2CCN(CCC3CN(C)C(=O)O3)CC2)cc1 (stereo unspecified) | 142 to 145
13 | Nc1ccc2c(c1)CS(=O)(=O)N2CCF | 119 to 121
14 | O=C(NC1CCc2cc3c(cc2C1)OCC3)C(F)(F)F (stereo unspecified) | 131
15 | Cc1cc(Cl)cc(C(=O)NCC(C)S(C)=O)c1NC(=O)c1cc(C(F)(F)F)nn1-c1ncccc1Cl (stereo unspecified) | 229 to 232
16 | CS(=O)(=O)N(c1ccc(Cl)c(C(=O)Nc2cccc3c4c(oc23)CCCC4)c1Cl)S(C)(=O)=O | 237 to 238

Row | Compound | melting point [°C]
17 | CC1SC(=O)C=NC1=O (stereo unspecified) | 81 to 83
18 | COc1ccc(C=NO)cc1C | 70 to 72
19 | CN(C)c1ccc(Cn2cnc3c(Cl)ncnc32)cc1 | 125 to 127
20 | Nc1ncc(-c2ccc(=O)[nH]n2)c(-c2ccco2)n1 | 262 to 268
21 | COc1cc(Cl)c2nc(NN)nc(N)c2c1OC | 168 to 169
22 | COc1ccc2c(c1)-c1nn(CCCl)c3ccc([N+](=O)[O-])c(c13)N2 | 264 to 265
23 | NC1NC=CN1c1ccncc1 (stereo unspecified) | 190
24 | COc1cnc(CCl)nc1O | 87
25 | O=C1CCC(c2ccc3c(c2)CCC2(CCN(C4CCC4)CC2)O3)=NN1 | 242 to 244
26 | CCOC(=O)N1CCC(N(C)C(=O)c2ccc(Cl)c(Cl)c2)C12CCCCC2 (stereo unspecified) | 57 to 60
27 | Brc1ccc(Cc2cc(Br)c(Cc3ccc(Br)cc3)cc2Br)cc1 | 161 to 167
28 | NS(=O)(=O)c1ccccc1C=C1CCOC1=O | 178 to 180
29 | COC(=O)C1CCC2C3CCC4CC=CCC4(C)C3C(NCCC(C)C)CC12C (stereo unspecified) | 150 to 152
30 | N#Cc1c[nH]c(Cl)c1-c1cccc(F)c1 | 158 to 161
31 | COc1cccc(C2=C(CC(C)=NO)C(=O)NCCC2)c1 | 155 to 158

More lines, now with the values ahead:

Row | melting point [°C] | Compound
32 | 152 to 154 | COc1ccccc1NC(=O)Nc1nc2nc(NCCCN3CCN(C)CC3)ncc2cc1-c1c(Cl)cccc1Cl
33 | 193 | Cc1nn(Cc2ccccc2)cc1C(=O)Nc1ccc(N2CCC(N3CCOCC3)CC2)c(C#N)c1
34 | 293 to 294 | Cc1nc2c(c3c1[nH]c1ccccc13)C(=NO)CC(C)(C)C2
35 | 130 | COc1ccc(CS[C@@H]2C[C@@H](C(=O)NN)N(S(=O)(=O)c3ccc4ccccc4c3)C2)cc1
36 | 178 to 182 | COc1cc(OCCCO)c(C=CC(=O)c2ccc(S(=O)(=O)Nc3cc(C)on3)cc2)cc1-c1cccs1
37 | 108 to 111 | CS(=O)(=O)c1ccc(-c2cnn(CC(F)(F)F)c(=O)c2SCc2ccccc2)cc1
38 | > 250 | N#Cc1ccc(C2=Nc3ccc(-c4ccccc4F)cc3NC(=O)C2)s1
39 | 104 to 105 | COc1ccc2cc([C@H](C)C(=O)OCC(=O)N(C)CCCO[N+](=O)[O-])ccc2c1
40 | 204 to 205 | CC(C)(C)OC(=O)N1CCN(c2[nH]nc(-c3ccc(Cl)cc3)c2-c2ccncc2)CC1
41 | 228 to 231 | COc1cc(OC)nc(C2(O)OC(=O)c3c(-c4ccc(Cl)cc4)ccnc32)n1 (stereo unspecified)
42 | 142 | COc1cccc(N(CC(=O)N(C)c2ccccc2)C(=O)CNC(=O)Nc2cccc(CO)c2)c1
43 | 250 to 252 | O=c1[nH]c2ccccc2c2c(CCC3CCNCC3)n(-c3ccccc3)nc12
44 | 303 to 306 | Cc1nnc2nc(-c3ccccc3)ccn12
45 | 82 to 83 | O=C(CCCCCCOc1ccc(OCc2ccccc2)cc1)C(F)(F)F
46 | 260 to 261 | O=C(NCc1c[nH]c(=S)n1[C@H]1CCc2c(F)cc(F)cc2C1)c1ccccc1
47 | 163 to 164 | CCC(C)(O/N=C(\C(=O)O)c1csc(NC(c2ccccc2)(c2ccccc2)c2ccccc2)n1)C(=O)OC(C)(C)C (stereo unspecified)
48 | 155 to 156 | Cc1ccc(NC(=O)C2CC2)c(-c2nc(C(F)(F)F)cs2)c1
49 | 69 to 71 | CC(C)(C)NNC(=O)OC(C)(C)C
50 | 267 to 268 | Cc1nc(Nc2ccc(Cl)cc2)sc1-c1nc2ccccc2c(=O)n1-c1ccc(Cl)cc1
51 | 247 to 249 | Cn1ncc(C(=O)N2CC(F)C2)c1C(=O)Nc1ccn2nc(-c3cccnc3)nc2c1

Row | melting point [°C] | Compound
52 | 164 to 165 | O=C(O)/C=C/c1ccc(C(=C2CCCCCC2)c2ccc(O)c(F)c2)cc1
53 | 127 | O=C(Oc1cc(-c2ccccc2)nc2ccccc12)N1CCOCC1
54 | 155 | COc1cc(-c2cccc(Cl)c2)c2cc(C(O)(c3ccc(Cl)cc3)c3nncn3C)ccc2n1 (stereo unspecified)
55 | 144 to 146 | Nc1cc(N2CCNCC2)ccc1S(=O)(=O)c1ccc(F)cc1
56 | 201 to 202 | CCCn1nc2c(N)nc3ccccc3c2c1CCN(C(N)=O)c1ccc(F)cc1
57 | 225 to 226 | CS(=O)(=O)c1ccc(-c2[nH]c3ccccc3c2-c2ccc(Br)cc2)cc1
58 | 300 to 302 | COC(=O)c1ccc2c(c1)S(=O)(=O)c1ccccc1NC2=O
59 | 98 to 104 | COc1cc(OCc2ccccn2)ccc1/C=C/c1cc(/C=C/c2ccc3[nH]ccc3c2)n[nH]1
60 | 125 to 131 | COC(=O)c1cccc(F)c1C=NC(C)(C(N)=O)C(C)C (stereo unspecified)
61 | 112 to 114 | O=C(Nc1ccccc1C(=O)c1ccc(OC(F)(F)F)cc1)c1ccncc1
62 | 223 to 224 | CC1(C)SC2C(NC(=O)Cc3ccccc3)C(=O)N2C1NC(=O)OCC(Cl)(Cl)Cl (stereo unspecified)
63 | 218 to 220 | CC(C)n1nc(-c2c(-c3ccccc3)nn3ccc(Oc4ccncc4)cc23)ccc1=O
64 | 116 to 117 | COCCOc1ccc(CCC(=O)O)c(Oc2ncc(C(F)(F)F)cc2Cl)c1
65 | 178 to 180 | O=c1[nH]c2ccccc2n1CCCN1CCN(c2n[nH]c3ccccc23)CC1
66 | 193 to 194 | CCc1cnc2c(NC(=O)c3c(Cl)cccc3Cl)cccc2c1CCl
67 | 151 to 154 | CC(C)Sc1c(C(N)=O)n(C)c2ccc(OCc3ccccc3)cc12
68 | 95 to 96 | N#CC(CCCCOc1ccccc1)(Cn1cncn1)c1ccccc1 (stereo unspecified)
69 | 116 | CC(C)c1[nH]c2ccccc2c1Sc1ccc(O)cc1
70 | 110 | CS(=O)(=O)N1CCN([C@@H](CNCS(=O)(=O)c2ccc(OCc3ccccc3)cc2)C(=O)NO)CC1
71 | 168 to 171 | CC(C)(C)OC(=O)N1CCC(c2ccc3oc(-c4ccc(S(C)(=O)=O)cc4F)nc3c2)CC1
